Reference: PubChem BioAssay AID248 (DTP/NCI, 2004)
Where “and” joins values, the source holds several entries; their conditions need not be identical. Identical values can stand only once. Toxic doses and inconclusive results are not listed. No stated cut-off is given here; in the data, active means T/C of 150% or more; inactive means T/C below 125%.

Tested on: L1210 leukemia ip in BDF1 mice, survival T/C
Assay: NCI In Vivo Anticancer Drug Screen. Data for tumor model L1210 Leukemia (intraperitoneal) in B6D2F1 (BDF1) mice
Conditions: endpoint: mean survival time, higher = longer survival
Summary of the method: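 Tumor was transplanted into mice, which were then dosed with test compound or vehicle alone. Survival was recorded for each group, and the treated figure was expressed relative to the control figure.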

[1] = dose: 100.0 mg/kg/injection, schedule: Q01DX009 (ip), vehicle: saline with Tween-80
[2] = dose: 200.0 mg/kg/injection, schedule: Q01DX009 (ip), vehicle: saline with Tween-80
[3] = dose: 100.0 mg/kg/injection, schedule: Q04DX003 (ip), vehicle: other
[4] = dose: 50.0 mg/kg/injection, schedule: Q01DX009 (ip), vehicle: saline
[5] = dose: 100.0 mg/kg/injection, schedule: Q01DX001 (ip), vehicle: carboxymethylcellulose (CMC)
[6] = dose: 200.0 mg/kg/injection, schedule: Q01DX001 (ip), vehicle: carboxymethylcellulose (CMC)
[7] = dose: 100.0 mg/kg/injection, schedule: Q01DX009 (ip), vehicle: saline
[8] = dose: 200.0 mg/kg/injection, schedule: Q01DX009 (ip), vehicle: saline

Measured: T/C

CCC(=O)c1ccc(OC(=O)Nc2ccc(Cl)cc2[N+](=O)[O-])cc1
inactive: [1] 100 % of control and 92 % of control | dose: 100.0 mg/kg/injection, schedule: Q04DX002 (ip), vehicle: saline with Tween-80 97 % of control and 113 % of control | dose: 100.0 mg/kg/injection, schedule: Q04DX003 (ip), vehicle: saline with Tween-80 102 % of control | [2] 96 % of control and 103 % of control | dose: 200.0 mg/kg/injection, schedule: Q04DX002 (ip), vehicle: saline with Tween-80 97 % of control and 91 % of control | dose: 200.0 mg/kg/injection, schedule: Q04DX003 (ip), vehicle: saline with Tween-80 95 % of control | dose: 400.0 mg/kg/injection, schedule: Q01DX009 (ip), vehicle: saline with Tween-80 92 % of control | dose: 400.0 mg/kg/injection, schedule: Q04DX002 (ip), vehicle: saline with Tween-80 95 % of control and 92 % of control | dose: 400.0 mg/kg/injection, schedule: Q04DX003 (ip), vehicle: saline with Tween-80 97 % of control

CCCCNc1ncnc2c1ncn2C1OC(CO)C(O)C1O (stereo unspecified)
inactive: dose: 50.0 mg/kg/injection, schedule: Q01DX005 (ip), vehicle: saline 105 % of control

Cc1c2ccn(CCCCCCCCn3ccc4c(C)c5nc6ccccc6c5c(C)c4c3)cc2c(C)c2c1nc1ccccc12
inactive: dose: 0.78 mg/kg/injection, schedule: Q04DX003 (ip), vehicle: other 98 % of control | dose: 1.56 mg/kg/injection, schedule: Q04DX003 (ip), vehicle: other 104 % of control | dose: 3.13 mg/kg/injection, schedule: Q04DX003 (ip), vehicle: other 104 % of control | dose: 6.25 mg/kg/injection, schedule: Q04DX003 (ip), vehicle: other 112 % of control | dose: 12.5 mg/kg/injection, schedule: Q04DX003 (ip), vehicle: other 118 % of control | dose: 25.0 mg/kg/injection, schedule: Q04DX003 (ip), vehicle: other 115 % of control | dose: 50.0 mg/kg/injection, schedule: Q04DX003 (ip), vehicle: other 98 % of control | [3] 109 % of control

FC(F)=C(F)I
inactive: dose: 50.0 mg/kg/injection, schedule: Q01DX005 (ip), vehicle: other 102 % of control | dose: 100.0 mg/kg/injection, schedule: Q01DX005 (ip), vehicle: other 87 % of control | dose: 100.0 mg/kg/injection, schedule: Q04DX002 (ip), vehicle: other 98 % of control | dose: 200.0 mg/kg/injection, schedule: Q01DX005 (ip), vehicle: other 94 % of control | dose: 200.0 mg/kg/injection, schedule: Q04DX002 (ip), vehicle: other 104 % of control

COC(=O)C(CCSC)NC(=O)CNC(=O)OCc1ccccc1 (stereo unspecified)
inactive: dose: 100.0 mg/kg/injection, schedule: Q04DX003 (ip), vehicle: Klucel (hydroxypropylcellulose) (HPC) 99 % of control | dose: 200.0 mg/kg/injection, schedule: Q04DX003 (ip), vehicle: Klucel (hydroxypropylcellulose) (HPC) 97 % of control | dose: 400.0 mg/kg/injection, schedule: Q04DX003 (ip), vehicle: Klucel (hydroxypropylcellulose) (HPC) 92 % of control

CN(C)CCC1(c2ccccc2)C=Cc2ccccc21 (stereo unspecified)
inactive: dose: 3.12 mg/kg/injection, schedule: Q01DX009 (ip), vehicle: saline 93 % of control | dose: 6.25 mg/kg/injection, schedule: Q01DX009 (ip), vehicle: saline 97 % of control | dose: 12.5 mg/kg/injection, schedule: Q01DX009 (ip), vehicle: saline 101 % of control | dose: 25.0 mg/kg/injection, schedule: Q01DX009 (ip), vehicle: saline 100 % of control | [4] 95 % of control

CC(C)C[CH2][Pb]([CH2]CC(C)C)([CH2]CC(C)C)[O]C(=O)C(Cl)(Cl)Cl
inactive: dose: 3.12 mg/kg/injection, schedule: Q01DX009 (ip), vehicle: Klucel (hydroxypropylcellulose) (HPC) 98 % of control | dose: 3.12 mg/kg/injection, schedule: Q04DX002 (ip), vehicle: Klucel (hydroxypropylcellulose) (HPC) 96 % of control | dose: 6.25 mg/kg/injection, schedule: Q01DX009 (ip), vehicle: Klucel (hydroxypropylcellulose) (HPC) 95 % of control | dose: 6.25 mg/kg/injection, schedule: Q04DX002 (ip), vehicle: Klucel (hydroxypropylcellulose) (HPC) 115 % of control | dose: 12.5 mg/kg/injection, schedule: Q01DX009 (ip), vehicle: Klucel (hydroxypropylcellulose) (HPC) 98 % of control | dose: 12.5 mg/kg/injection, schedule: Q04DX002 (ip), vehicle: Klucel (hydroxypropylcellulose) (HPC) 93 % of control and 87 % of control

O=C1C=C(c2ccccc2)C(=O)C=C1c1ccccc1
inactive: dose: 6.25 mg/kg/injection, schedule: Q01DX009 (ip), vehicle: water 94 % of control | dose: 12.5 mg/kg/injection, schedule: Q01DX009 (ip), vehicle: water 86 % of control | dose: 25.0 mg/kg/injection, schedule: Q01DX009 (ip), vehicle: water 103 % of control | dose: 25.0 mg/kg/injection, schedule: Q04DX003 (ip), vehicle: gum acacia 94 % of control | dose: 50.0 mg/kg/injection, schedule: Q01DX009 (ip), vehicle: water 86 % of control | dose: 50.0 mg/kg/injection, schedule: Q04DX003 (ip), vehicle: gum acacia 94 % of control | dose: 100.0 mg/kg/injection, schedule: Q04DX003 (ip), vehicle: gum acacia 105 % of control

Cc1c(C2CCC(=O)C2)c2ccccc2n1C (stereo unspecified)
inactive: [5] 93 % of control | [6] 89 % of control | dose: 400.0 mg/kg/injection, schedule: Q01DX001 (ip), vehicle: carboxymethylcellulose (CMC) 88 % of control

CCOP(=S)(S)OCC.[Cr]
inactive: dose: 50.0 mg/kg/injection, schedule: Q01DX001 (ip), vehicle: other 98 % of control | dose: 100.0 mg/kg/injection, schedule: Q01DX001 (ip), vehicle: other 98 % of control | dose: 200.0 mg/kg/injection, schedule: Q01DX001 (ip), vehicle: other 102 % of control | dose: 400.0 mg/kg/injection, schedule: Q01DX001 (ip), vehicle: other 96 % of control

Cc1ccc(C(=O)O)cc1
inactive: [1] 90 % of control | [2] 88 % of control

CC(C)C(C(=O)c1ccccc1)C(Cl)c1ccccc1 (stereo unspecified)
inactive: [3] 94 % of control | dose: 200.0 mg/kg/injection, schedule: Q04DX003 (ip), vehicle: other 102 % of control | dose: 400.0 mg/kg/injection, schedule: Q04DX003 (ip), vehicle: other 93 % of control

CC(=O)Nc1cc(C(=O)Nc2cccc(C3=NCCN3)c2)ccc1C(=O)Nc1cccc(C2=NCCN2)c1
inactive: dose: 1.3 mg/kg/injection, schedule: Q01DX Z (ip), vehicle: methylcellulose (MC) 96 % of control

C/C(CCc1ccccc1)=N/N(C)C
inactive: dose: 100.0 mg/kg/injection, schedule: Q01DX001 (ip), vehicle: saline 97 % of control | [7] 94 % of control | dose: 200.0 mg/kg/injection, schedule: Q01DX001 (ip), vehicle: saline 95 % of control | [8] 91 % of control | dose: 400.0 mg/kg/injection, schedule: Q01DX001 (ip), vehicle: saline 96 % of control

CCN(CC)CCN(CC)CCN(CC)CC
inactive: [7] 94 % of control | [8] 115 % of control

Nc1nc2ccccc2nc1N
inactive: [4] 96 % of control | dose: 50.0 mg/kg/injection, schedule: Q04DX003 (ip), vehicle: saline 105 % of control | [7] 104 % of control | dose: 100.0 mg/kg/injection, schedule: Q04DX003 (ip), vehicle: saline 101 % of control | dose: 200.0 mg/kg/injection, schedule: Q04DX003 (ip), vehicle: saline 108 % of control

Cc1cccc(/C=N/N(C)C(N)=S)n1
inactive: [5] 102 % of control | [6] 106 % of control
